{
  "source": "patent US20250268820A1",
  "about": "(Zambon S.p.A., priority 2020, published 2025)",
  "origin": "cited, not measured here",
  "key": {"[1]": {"details": "in vivo"}},
  "data": [
    {"smiles": "C[C@@H](c1ncncc1F)[C@](O)(Cn1cncn1)c1ccc(F)cc1F", "note": "[voriconazole]", "values": [
      {"measurement": "concentration in homogenates of lung tissue versus plasma", "setting": "post-mortem studies, treated patients", "value": "comparable to those measured in the plasma"},
      {"measurement": "pharmacokinetic profile (Cmax and AUC versus dose)", "setting": "[1]", "value": "non-linear"}
    ]},
    {"smiles": "CCC(C)n1ncn(-c2ccc(N3CCN(c4ccc(OCC5COC(Cn6cncn6)(c6ccc(Cl)cc6Cl)O5)cc4)CC3)cc2)c1=O", "note": "(stereo not drawn) [itraconazole]", "values": [
      {"measurement": "ELF exposure as fraction of the plasma concentration", "setting": "healthy volunteers", "value": "approximately ⅓"},
      {"measurement": "concentration in the alveolar cells with respect to the plasma concentration", "setting": "healthy volunteers", "value": "more than double"},
      {"measurement": "concentrations in bronchoalveolar lavage fluid and lung tissue in the airways versus plasma", "setting": "other cases", "value": 10, "unit": "times lower"}
    ]},
    {"smiles": "OC(Cn1cncn1)(Cn1cncn1)c1ccc(F)cc1F", "note": "[Fluconazole]", "values": [
      {"measurement": "activity against invasive aspergillosis", "setting": "invasive aspergillosis", "value": "not active"}
    ]}
  ]
}
